Patent publication US9220268B2, “Herbicidal benzoxazinones” (BASF SE, priority 2009, dated 2015)

Legend:
[1] = tested on: BRAPL; assay: greenhouse experiment, post-emergence, mixtures (Example 2, Colby); assay type: in vivo, Brachiaria plantaginea
Protocol: (§1) The culture containers used were plastic pots containing loamy sand with approximately 3.0% of humus as substrate. The seeds of the test plants were sown separately for each species.
(§2) For the post-emergence treatment, the test plants were grown to a plant height of from 3 to 15 cm, depending on the plant habit, and only then treated with the active compounds which had been suspended or emulsified in water. To this end, the test plants were either sown directly and grown in the same containers, or they were first grown separately as seedlings and transplanted into the test containers a few days prior to treatment.
(§3) Depending on the species, the plants were kept at 10-25° C. and 20-35° C., respectively. The test period extended over 2 to 4 weeks. During this time, the plants were tended and their response to the individual treatments was evaluated.
(§4) Evaluation was carried out using a scale from 0 to 100. 100 means no emergence of the plants, or complete destruction of at least the above-ground parts, and 0 means no damage or normal course of growth. Good herbicidal activity is given at values of at least 70, and very good herbicidal activity is given at values of at least 85.
(§5) The respective stated components A and B, and if appropriate, C were formulated as a 10% by weight strength emulsion concentrate and, with addition of the amount of solvent system, introduced into the spray liquor used for applying the active compound. In the examples, the solvent used was water.
(§6) The test period extended over 20 and 21 days, respectively. During this time, the plants were tended, and their reaction to the treatment with active compound was monitored.
(§7) In the examples below, using the method of S. R. Colby (1967) “Calculating synergistic and antagonistic responses of herbicide combinations”, Weeds 15, p. 22ff., the value E, which is expected if the activity of the individual active compounds is only additive, was calculated. […]
(§8) If the value found experimentally is higher than the value E calculated according to Colby, a synergistic effect is present.

[2] = tested on: ALOMY; assay: as above; assay type: in vivo, Alopercurus myosuroides
Protocol: as §1, §2
(§9) Depending on the species, the plants were kept at 10-25° C. and 20-35° C., respectively. […] During this time, the plants were tended and their response to the individual treatments was evaluated. […]
as §6, §7, §8

[3] = tested on: ECHCG; assay: as above; assay type: in vivo, Echinocloa crus-galli
Protocol: as §1, §2, §9, §6, §7, §8

[4] = tested on: AMBEL; assay: greenhouse experiment, pre-emergence, mixtures (Example 2, Colby); assay type: in vivo, Ambrosia artemisiifolia
Description: as §1
(§10) For the pre-emergence treatment, the active compounds, suspended or emulsified in water, were applied directly after sowing by means of finely distributing nozzles. The containers were irrigated gently to promote germination and growth and subsequently covered with transparent plastic hoods until the plants had rooted. This cover caused uniform germination of the test plants unless this was adversely affected by the active compounds.
as §3, §4, §5, §6
(§11) In the examples below, using the method of S. R. Colby (1967) “Calculating synergistic and antagonistic responses of herbicide combinations”, Weeds 15, p. 22ff., the value E, which is expected if the activity of the individual active compounds is only additive, was calculated. E=X+Y−(X·Y/100) • where • X=percent activity using active compound A at an application rate a; • Y=percent activity using active compound B at an application rate b; • E=expected activity (in %) by A+B at application rates a+b.
as §8

[5] = tested on: BRAPL; assay: as above; assay type: in vivo, Brachiaria plantaginea
Description: as §1, §10, §9, §6, §7, §8

[6] = tested on: ERBVI; assay: as above; assay type: in vivo, Eriochloa villosa
Description: as §1, §10, §9, §6, §7, §8

[7] = tested on: ECHCG; assay: as above; assay type: in vivo, Echinocloa crus-galli
Description: as §1, §10, §9, §6, §7, §8

[8] = tested on: SETVI; assay: as above; assay type: in vivo, Setaria viridis
Description: as §1, §10, §9, §6, §7, §8

[9] = tested on: CHEAL; assay: as above; assay type: in vivo, Chenopodium album
Description: as §1, §10, §3, §4, §5, §6, §11, §8

[10] = tested on: AMARE; assay: as above; assay type: in vivo, Amaranthus retroflexus
Description: as §1, §10, §3, §4, §5, §6, §7, §8

[11] = tested on: BIDPI; assay: as above; assay type: in vivo, Bidens pilosa
Description: as §1, §10, §9, §6, §7, §8

[12] = tested on: ELEIN; assay: as above; assay type: in vivo, Eleusine indica
Description: as §1, §10, §9, §6, §7, §8

[13] = tested on: SORHA; assay: as above; assay type: in vivo, Sorghum halepense
Description: as §1, §10, §9, §6, §7, §8

[14] = tested on: SETFA; assay: greenhouse experiment, post-emergence, mixtures (Example 2, Colby); assay type: in vivo, Setaria faberi
Protocol: as §1, §2, §9, §6, §7, §8

[15] = tested on: ERBVI; assay: as above; assay type: in vivo, Eriochloa villosa
Protocol: as §1, §2, §9, §6, §7, §8

[16] = tested on: SORPHA; assay: as above; assay type: in vivo, Sorghum halepense
Protocol: as §1, §2, §9, §6, §7, §8

[17] = tested on: BRAPL; assay: greenhouse experiment, post-emergence treatment (Use Examples); assay type: in vivo, Brachiaria plantaginea; details: post-emergence method; application rate 0.025 kg/ha; scale 0 to 100
Description: (§12) The culture containers used were plastic flowerpots containing loamy sand with approximately 3.0% of humus as the substrate. The seeds of the test plants were sown separately for each species.
(§13) For the post-emergence treatment, the test plants were first grown to a height of 3 to 15 cm, depending on the plant habit, and only then treated with the active ingredients which had been suspended or emulsified in water. For this purpose, the test plants were either sown directly and grown in the same containers, or they were first grown separately as seedlings and transplanted into the test containers a few days prior to treatment.
(§14) Depending on the species, the plants were kept at 10-25° C. or 20-35° C. The test period extended over 2 to 4 weeks. During this time, the plants were tended, and their response to the individual treatments was evaluated.
(§15) Evaluation was carried out using a scale from 0 to 100. 100 means no emergence of the plants, or complete destruction of at least the aerial moieties, and 0 means no damage, or normal course of growth. A good herbicidal activity is given at values of at least 70 and a very good herbicidal activity is given at values of at least 85.

[18] = tested on: SETFA; assay: as above; assay type: in vivo, Setaria faberi; details: post-emergence method; application rate 0.025 kg/ha; scale 0 to 100
Description: as §12, §13, §14, §15

[19] = tested on: AMBEL; assay: greenhouse experiment, pre-emergence treatment (Use Examples); assay type: in vivo, Ambrosia elatior; details: pre-emergence method; application rate 0.050 kg/ha; scale 0 to 100
Description: as §12
as §10, with “active ingredients, which had been” for “active compounds,”, “test plants,” for “test plants”, “this has been impaired” for “this was adversely affected”, “active ingredients.” for “active compounds.”
as §14, §15

[20] = tested on: ALOMY; assay: greenhouse experiment, pre-emergence, mixtures (Example 2, Colby); assay type: in vivo, Alopercurus myosuroides
Description: as §1, §10, §9, §6, §7, §8

[21] = tested on: POLCO; assay: as above; assay type: in vivo, Polygonum convolvulus
Description: as §1, §10, §9, §6, §7, §8

With `O=C(O)CNCP(=O)(O)O` [B.95, glyphosate, reference compound] the “herbicidal activity against BRAPL found” value ([1]; B.95 135 g/ha a.s.) was 95%, the “herbicidal activity against ALOMY found” value ([2]; B.95 135 g/ha a.s.) was 80% and the “herbicidal activity against ECHCG found” value ([3]; B.95 135 g/ha a.s.) was 85%.
With `Cn1nc(C(F)(F)F)c(CS(=O)(=O)C2=NOC(C)(C)C2)c1OC(F)F` [B.116, pyroxasulfone, reference compound] the “herbicidal activity against AMBEL found” value ([4]; B.116 6.25 g/ha a.s.) was 0%, the “herbicidal activity against BRAPL found” value ([5]; B.116 6.25 g/ha a.s.) was 30% and the “herbicidal activity against ERBVI found” value ([6]; B.116 6.25 g/ha a.s.) was 45%.
`COC[C@H](C)N(C(=O)CCl)c1c(C)csc1C` [B.106, dimethenamid-p, reference compound] was tested, and the “herbicidal activity against ECHCG found” value ([7]; B.106 15 g/ha a.s.) was 85%, the “herbicidal activity against SETVI found” value ([8]; B.106 15 g/ha a.s.) was 70% and the “herbicidal activity against CHEAL found” value ([9]; B.106 15 g/ha a.s.) was 10%. For the same molecule, the “herbicidal activity against AMARE found” value ([10]; B.106 15 g/ha a.s.) was 75%.
In the case of `CC(C)N(C)S(=O)(=O)NC(=O)c1cc(-n2c(=O)cc(C(F)(F)F)n(C)c2=O)c(F)cc1Cl` [B.76, saflufenacil, reference compound], the “herbicidal activity against AMBEL found” value ([4]; B.76 6.25 g/ha a.s.) is reported as 75%, the “herbicidal activity against BIDPI found” value ([11]; B.76 6.25 g/ha a.s.) is reported as 60% and the “herbicidal activity against ELEIN found” value ([12]; B.76 6.25 g/ha a.s.) is reported as 30%. The “herbicidal activity against SORHA found” value ([13]; B.76 6.25 g/ha a.s.) was 0%, the “herbicidal activity against BRAPL found” value ([1]; B.76 12.5 g/ha a.s.) was 30% and the “herbicidal activity against SETFA found” value ([14]; B.76 12.5 g/ha a.s.) was 30%. The “herbicidal activity against ERBVI found” value ([15]; B.76 12.5 g/ha a.s.) was 60%, the “herbicidal activity against SORPHA found” value ([16]; B.76 12.5 g/ha a.s.) was 25% and the “herbicidal activity against CHEAL found” value ([9]; B.76 3.12 g/ha a.s.) was 30%. The “herbicidal activity against AMARE found” value ([10]; B.76 3.12 g/ha a.s.) was 35%.
In the case of `C#CCN1C(=O)C(F)(F)Oc2cc(F)c(-n3c(=O)n(C)c(=S)n(C)c3=O)cc21` [I.a.35, 1,5-dimethyl-6-thioxo-3-(2,2,7-trifluoro-3-oxo-4-(prop-2-ynyl)-3,4-dihydro-2H-benzo [b][1,4]oxazin-6-yl)-1,3,5-triazinane-2,4-dione], the “herbicidal activity against BRAPL” value [17] is reported as “very good (a very good herbicidal activity is given at values of at least 85)”, the “herbicidal activity against SETFA” value [18] is reported as “very good (a very good herbicidal activity is given at values of at least 85)” and the “herbicidal activity against AMBEL” value [19] is reported as “very good (a very good herbicidal activity is given at values of at least 85)”. For the same molecule, the “herbicidal activity against AMBEL found” value ([4]; I.a.35 12.5 g/ha a.s.) was 60%, the “herbicidal activity against AMBEL found” value ([4]; I.a.35 25 g/ha a.s.) was 75% and the “herbicidal activity against BIDPI found” value ([11]; I.a.35 12.5 g/ha a.s.) was 30%. For the same molecule, the “herbicidal activity against ELEIN found” value ([12]; I.a.35 12.5 g/ha a.s.) was 45%, the “herbicidal activity against SORHA found” value ([13]; I.a.35 12.5 g/ha a.s.) was 60% and the “herbicidal activity against BRAPL found” value ([1]; I.a.35 12.5 g/ha a.s.) was 65%. The “herbicidal activity against SETFA found” value ([14]; I.a.35 12.5 g/ha a.s.) was 75%, the “herbicidal activity against ERBVI found” value ([15]; I.a.35 12.5 g/ha a.s.) was 70% and the “herbicidal activity against SORPHA found” value ([16]; I.a.35 12.5 g/ha a.s.) was 80%. The “herbicidal activity against ALOMY found” value ([2]; I.a.35 12.5 g/ha a.s.) was 30%, the “herbicidal activity against ECHCG found” value ([3]; I.a.35 12.5 g/ha a.s.) was 75% and the “herbicidal activity against ALOMY found” value ([20]; I.a.35 25 g/ha a.s.) was 65%. The “herbicidal activity against POLCO found” value ([21]; I.a.35 25 g/ha a.s.) was 65%, the “herbicidal activity against ECHCG found” value ([7]; I.a.35 12.5 g/ha a.s.) was 30% and the “herbicidal activity against SETVI found” value ([8]; I.a.35 12.5 g/ha a.s.) was 90%. For the same molecule, the “herbicidal activity against CHEAL found” value ([9]; I.a.35 3.12 g/ha a.s.) was 85%, the “herbicidal activity against CHEAL found” value ([9]; I.a.35 6.25 g/ha a.s.) was 85% and the “herbicidal activity against BRAPL found” value ([5]; I.a.35 25 g/ha a.s.) was 50%. The “herbicidal activity against ERBVI found” value ([6]; I.a.35 25 g/ha a.s.) was 55% and the “herbicidal activity against AMARE found” value ([10]; I.a.35 3.12 g/ha a.s.) was 70%.
For `CCC(CC)Nc1c([N+](=O)[O-])cc(C)c(C)c1[N+](=O)[O-]` [B.101, pendimethalin, reference compound], the “herbicidal activity against ALOMY found” value ([20]; B.101 400 g/ha a.s.) was 75% and the “herbicidal activity against POLCO found” value ([21]; B.101 400 g/ha a.s.) was 40%.
